Patent US20250018019A1, “TREATMENT OF INTERFERON DRIVEN INFLAMMATION” (The Provost, Fellows, Foundation Scholars and the other …, priority 2023, published 2025)

Tests used:
Type in all cases: cell-based, mouse
BMDMs [1] = assay: ELISA of cytokine release from BMDMs; details: LPS 4 h; for LPS-induced IFN-β release: BMDMs pre-treated
Protocol: (§1) All compounds used DMSO as a vehicle except for 4-hydroxy tamoxifen (EtOH), NAC (PBS), and AOAA for tracing experiments (Media). LPS was used at a concentration of 100 ng/ml for indicated timepoints (2, 3, 4, 6, 8, 24, 48 h). FHIN1 (10 or 20 μM), MMF (50 or 100 μM), DMF (25 μM), AOAA (5 mM), oligomycin (10 μM), CCCP (50 μM) NAC (1 mM), and IMT1 (10 μM) pre-treatments were performed for 3 h prior the addition of LPS. Cells were treated with valinomycin (10 nM) 15 mins before LPS stimulation. Anti-CD210 or IgG control (10 μg/ml) antibodies were added to cells 1 h prior to LPS stimulation. Recombinant mouse IL-10 protein (100 ng/ml) was added to cells at the same time as LPS. Cells were treated with IFN-B1 (220 ng/ml) for 3 h. Cells were treated with C-178 (1 μM) 1 h prior to LPS stimulation or transfection with 2′3′-cGAMP (1.5 μg/ml) for 4 hrs to achieve cGAS-STING activation. Cells were treated with ODN 2088 (1 μM) for 1 hr prior to LPS stimulation or transfection with CPG ODN 1826 (1.5 μg/ml) to achieve TLR9 activation. 3 different timepoints of 4-hydroxy tamoxifen (TAM) (600 nM or 2 μM) or EtOH treatment were performed-these are specified in the individual figure legends. For ‘48 h’ treatments EtOH/TAM was added on day 5 of 6 during the BMDM differentiation protocol. On day 6 they were plated with EtOH/TAM (left overnight) and treated the following day. For ‘72 h’ treatments EtOH/TAM was added on day […] of 6 during the BMDM differentiation protocol. On day 6 they were plated with EtOH/TAM (left overnight) and treated the following day. For ‘96 h’ treatments EtOH/TAM was added on day […] of 6 during the BMDM differentiation protocol. On day 6 they were plated with EtOH/TAM and treated 2 days later.
(§2) Pre-designed silencer select siRNAs for Cgas (s103166), Tmem173 (s91058), Tlr3 (s100579), Tlr9 (s96268), As/(s99640), Tlr7 (s100720), Ddx58 (s106376), Ifih1 (s89787), Nrf2 (s70522), Atf4 (s62689) and negative control (4390843) were ordered from Thermo Fisher. siRNA sequences are given in Table S2. Cells were transfected with 50 nM siRNA using 5 μl lipofectamine RNAiMAX according to manufacturer's instructions (Thermo Fisher). Cells were transfected in medium without serum and antibiotics which was replaced with complete medium 8 hours later. Cells were subsequently left for at least a further 12 hours prior to treatment.
BMDMs were plated in the presence or absence of ultrapure ethidium bromide (100 ng/ml) and incubated for a further 6 days prior to treatment. Depletion of mtDNA was determined by genomic DNA isolation followed by qPCR using primers specific for areas of mitochondrial DNA (D-loop) and areas of mtDNA that are not inserted into nuclear DNA (Non-NUMT).
DuoSet ELISA kits for IL-1β, TNFα, IL-6, IL-10, and GDF15 were purchased from R&D Systems and were carried out according to the manufacturer's instructions with appropriately diluted cell supernatants added to each plate in duplicate or triplicate. IFN-β was determined using DuoSet ELISA kit from R&D Systems or Abcam (ab252363). Quantikine ELISA kit for IFN-β (R&D Systems) was used for determination of IFN-β concentration in serum samples and from human cells, and these were also carried out according to the manufacturer's instructions. Absorbance at 450 nm was quantified using a FLUOstar Optima plate reader. Corrected absorbance values were calculated by subtracting the background absorbance, and cytokine concentrations were subsequently obtained by extrapolation from a standard curve plotted on GraphPad Prism 9.2.0.

BMDMs [2] = assay: Flow cytometry, CellROX and TMRM staining; details: BMDMs pre-treated, LPS 4 h; oligomycin 10 μM, CCCP 50 μM, valinomycin 10 nM, MMF 50 or 100 μM
Protocol: as §1
Cells were plated in 12-well plates and treated as desired. CellROX Green (5 μM, Thermo Fisher) or TMRM (20 nM, Thermo Fisher) was added to cells 30 mins prior to end of cell treatments. Cells were washed once in PBS and scraped into 200 μl FACS buffer (2 mM EDTA, 0.5% FCS in PBS). Acquisition of samples was performed on a BD Accuri C6 flow cytometer. The gating strategy used for all flow cytometry experiments consisted of debris exclusion by FSC-A vs SSC-A analysis and subsequent doublet exclusion by FSC-A vs FSC-H analysis. A sample gating strategy is provided in Supplementary FIG. 2. 10,000 cells was acquired per condition. Mean fluorescence intensity (MFI) was calculated for all cells in each condition using FlowJo v10.

BMDMs [3] = assay: Digitonin fractionation, qPCR of mtDNA and mtRNA
Protocol: as §1
BMDMs were plated at 0.5×10^6 cells/well and treated as desired. After treatment, cells were washed once with room temperature PBS, before being scraped on ice into ice cold PBS and pelleted at 500×g for 5 mins at 4° C. Supernatant was removed and discarded, and the pellet was resuspended in 400 μl extraction buffer (150 mM NaCl, 50 mM HEPES pH 7.4, 25 μg/ml digitonin). Samples were then placed in a rotating mixer at 4° C. for 10 mins before centrifugation at 2000×g at 4° C. for 5 mins. The resulting supernatant constituted the cytosolic fraction, from which RNA and DNA were isolated using an AllPrep DNA/RNA Mini Kit (Qiagen). Alternatively, the cytosolic fraction was concentrated using Strataclean Resin (Agilent) and analysed by western blot. The pellet constituted a fraction containing membrane-bound organelles which was lysed in RNA lysis buffer for RNA isolation or lysed in western blot lysis buffer for analysis by western blot. To determine the presence of mtRNA and mtDNA in the cytosol, qPCR was performed using primers specific for mitochondrial D-loop on cDNA which had been reverse-transcribed from RNA isolated from the cytosolic fraction (mtRNA) and on DNA isolated from the cytosolic fraction (mtDNA). In both cases, values were normalised using a housekeeping control gene (β-actin) amplified in cDNA which had been reverse-transcribed from RNA isolated from the membrane-bound fraction.

BMDMs [4] = assay: RT-qPCR gene expression in BMDMs
Protocol: as §1
RNA extraction from cells was carried out using a Purelink™ RNA kit (Invitrogen) according to the manufacturer's instructions. BMDMs were treated as required, and following treatment were instantly lysed in 350 μl RNA lysis buffer. Isolated RNA was quantified using a NanoDrop 2000 spectrophotometer, and RNA concentration was normalised to the lowest concentration across all samples with RNAse-free water. If necessary, samples were DNAse-treated after quantification using DNAse I (Thermo Fisher) according to the manufacturer's instructions. Isolated RNA samples were normalised and converted into cDNA using the High-Capacity cDNA Reverse Transcription Kit (Thermo Fisher) according to manufacturer's instructions. 10 μl of RNA (at a maximum concentration of 100 ng/μl) was added to 10 μl of reverse transcription master mix to complete the reaction mixture. Real-time quantitative PCR was performed on the cDNA generated in the previous step, using primers designed in-house and ordered from Eurofins Genomics, as detailed in Table S2. The reaction was performed in a 96-well qPCR plate by a 7500 Fast Real-Time PCR machine (Thermo Fisher). Relative expression (2^−ΔΔCT) was calculated from the CT values for each sample and gene of interest.
as §2

BMDMs [5] = assay: Immunofluorescence, Mitotracker Red and dsRNA; details: BMDMs pre-treated, relative to DMSO control, LPS 4 h
Protocol: as §1
Cells were plated on 20 mm cover slips in 12-well plates. Cells were treated as required and Mitotracker Red CMXRos (100 nM, Thermo Fisher), was added to medium 30 mins prior to end of cell treatments. After 30 min incubation, cells were washed three times with warm PBS. Cells were subsequently fixed for 10 mins with 4% paraformaldehyde/PBS at 37° C. Cells were washed three times with PBS and permeabilized for 1 hour in block solution (1% BSA, 22.52 mg/ml glycine, 0.1% tween 20 in PBS). Anti-dsRNA antibody (Merck) was diluted 1/60 in block solution and incubated with cells overnight at room temperature. Cells were washed three times with PBS for 5 mins/wash. […] Images were analysed using the LAS X Life Science Microscope Software Platform (Leica). The same microscope instrument settings were used for all samples and all images were analysed using the same settings. […] Quantification of dsRNA or Mitotracker Red CMXRos signal intensity was performed using the measure function in ImageJ 1.53t (NIH).

In the case of `N#CC(C#N)=NNc1cccc(Cl)c1` [CCCP], the “LPS-induced IFN-β release” value (BMDMs [1]) is reported as “boosted” and the “mitochondrial membrane potential (MMP), TMRM staining” value (“mitochondrial membrane potential” for short) (BMDMs [2]) is reported as “significantly dissipated”.

With `Cc1ccccc1-c1cc(=O)oc2cc(OC(C)C(=O)N(C)C)ccc12` (centres unmarked) [IMT1] the “effect on the increase in mtRNA with FHIN1 (cytosolic and whole cell fraction)” value (BMDMs [3]; BMDMs co-treated with FHIN1 and IMT1 10 μM, LPS 4 h) was “inhibited in both” and the “effect on the FHIN1-mediated boost in IFN-β release” value (BMDMs [1]; BMDMs co-treated with FHIN1 and IMT1 10 μM) was “abrogated”.

With `CC(=O)N[C@@H](CS)C(=O)O` [NAC, N-acetyl cysteine] the “suppression of Il10 by FHIN1 and DMF” value (BMDMs [4]; BMDMs, NAC 1 mM together with FHIN1 or DMF, LPS 4 h) was “abrogated”.

With `CC[C@H]1/C=C/C=C/C[C@@H](C)[C@H](O)[C@@](C)(O)C(=O)[C@@H](C)[C@H](O)[C@@H](C)C(=O)[C@@H](C)[C@H](O)[C@@H](C)/C=C/C(=O)O[C@@H]2[C@H](C)[C@H](CC1)O[C@]1(CC[C@H](C)[C@H](C[C@@H](C)O)O1)[C@H]2C` [oligomycin A, Oligomycin A] the “mtDNA in cytosolic extracts (D-loop)” value (BMDMs [3]; digitonin-fractionated BMDMs) was “increase”, the “mtRNA in cytosolic extracts” value (BMDMs [3]; digitonin-fractionated BMDMs) was “increased” and the “dsRNA accumulation (immunofluorescence)” value (BMDMs [5]) was “accumulation of dsRNA to a similar extent to that observed in cells treated with FHIN1”. For the same molecule, the “LPS-induced IFN-β release” value (BMDMs [1]) was “boosted” and the “mitochondrial membrane potential” value (BMDMs [2]) was “boosted”.

In the case of `CC(C)[C@@H]1NC(=O)[C@H](C)OC(=O)[C@@H](C(C)C)NC(=O)[C@@H](C(C)C)OC(=O)[C@H](C(C)C)NC(=O)[C@H](C)OC(=O)[C@@H](C(C)C)NC(=O)[C@@H](C(C)C)OC(=O)[C@H](C(C)C)NC(=O)[C@H](C)OC(=O)[C@@H](C(C)C)NC(=O)[C@@H](C(C)C)OC1=O` [valinomycin A, valinomycin], the “dsRNA accumulation (immunofluorescence)” value (BMDMs [5]) is reported as “similarly drove dsRNA accumulation”, the “LPS-induced IFN-β release” value (BMDMs [1]) is reported as “boosted” and the “mitochondrial membrane potential” value (BMDMs [2]) is reported as “non-significantly reduced”.

B1: IFN-β: recombinant mouse IFN-β1 used to stimulate BMDMs (protein, UniProt P01575 22-182, looked up)
Interferon beta: INYKQLQLQERTNIRKCQELLEQLNGKINLTYRADFKIPMEMTEKMQKSYTAFAIQEMLQNVFLVFRNNFSSTGWNETIVVRLLDELHQQTVFLKTVLEEKQEERLTWEMSSTALHLKSYYWRVQRYLKLMKYNSYAWMVVRAEIFRNFLIIRRLTRNFQN
With B1 the Fh1 expression (BMDMs [4]; IFN-β-stimulated BMDMs (220 ng/ml, 3 h)) was “inhibited”.
